Assay results as given in US8785439B2, “2,5,7-substituted oxazolopyrimidine derivatives” (Sanofi, priority 2010, dated 2014).

Biological target: T1, human Edg-1 receptor (Homo sapiens, UniProt P21453)
T1 construct: FLAG (N); expressed in transfected cells; membrane preparation
Assay: GTP-γ-S assay using human Edg-1 receptors (SPA, CHO Flp-In cell membrane preparation)
Assay type: biochemical
Conditions: test compound at 10 μM; high control 10 μM S1P regarded as 100% activation; background-corrected; triplicate; read-out: % Activation (Edg-1 receptor activation in percent of the activation by 10 μM S1P)
Outline: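 Membranes from CHO Flp-In cells stably overexpressing N-terminally FLAG-tagged human Edg-1 were used in a scintillation-proximity GTP-γ-S binding assay to measure receptor activation by compounds.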

T1 sequence (P21453 whole entry): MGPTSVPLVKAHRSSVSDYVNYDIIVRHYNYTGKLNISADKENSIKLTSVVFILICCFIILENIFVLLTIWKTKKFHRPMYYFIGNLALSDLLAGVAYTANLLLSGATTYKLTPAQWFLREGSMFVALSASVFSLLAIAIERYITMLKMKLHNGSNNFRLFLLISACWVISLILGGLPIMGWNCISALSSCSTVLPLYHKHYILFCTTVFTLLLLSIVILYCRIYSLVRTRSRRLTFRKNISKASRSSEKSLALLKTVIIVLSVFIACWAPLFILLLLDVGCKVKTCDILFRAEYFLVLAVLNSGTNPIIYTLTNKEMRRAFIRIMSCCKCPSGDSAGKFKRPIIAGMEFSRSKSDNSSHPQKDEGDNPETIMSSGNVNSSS

activation at 10 µM [%] | Compound
92 | CCCOc1nc(Oc2cc(F)ccc2C)nc2oc(-c3ccc(Cl)c(Cl)c3)nc12 [Example 157, 2-(3,4-dichloro-phenyl)-5-(5-fluoro-2-methyl-phenoxy)-7-propoxy-oxazolo[5,4-d]pyrimidine]
69 | Fc1ccccc1Oc1nc(OCC2CC2)c2nc(-c3ccc(Cl)c(Cl)c3)oc2n1 [Example 158, 7-cyclopropylmethoxy-2-(3,4-dichloro-phenyl)-5-(2-fluoro-phenoxy)-oxazolo[5,4-d]pyrimidine]
55 | Cc1ccc(F)cc1Oc1nc(OCC2CC2)c2nc(-c3ccc(Cl)c(Cl)c3)oc2n1 [Example 159, 7-cyclopropylmethoxy-2-(3,4-dichloro-phenyl)-5-(5-fluoro-2-methyl-phenoxy)-oxazolo[5,4-d]pyrimidine]
75 | CCCOc1nc(Oc2cncc(F)c2)nc2oc(-c3ccc(Cl)c(Cl)c3)nc12 [Example 160, 2-(3,4-dichloro-phenyl)-5-(5-fluoro-pyridin-3-yloxy)-7-propoxy-oxazolo[5,4-d]pyrimidine]
